Experimental data taken from patent US9708336B2, “Metallo-beta-lactamase inhibitors” (priority 2014, dated 2017).
Like-named read-outs stand apart in the source and are kept apart here.

What was measured:
NDM-1 = NDM-1 (Klebsiella pneumoniae, UniProt C7C422); assay: biochemical; assay type: biochemical; conditions: fluorescence assay with CCF2-FA substrate; read-out: NDM-1 IC50
VIM-1 = VIM-1 (Pseudomonas aeruginosa (strain ATCC 15692 / DSM 22644 / CIP 104116 / JCM 14847 / LMG 12228 / 1C / PRS 101 / PAO1), UniProt A0A0F7KYQ8); assay: Enzyme activity: determination of IC50, fluorescence assay with CCF2-FA substrate (VIM-1); assay type: biochemical
IMP-1 = IMP-1 (Serratia marcescens, UniProt P52699); assay: biochemical; assay type: biochemical; conditions: fluorescence assay with CCF2-FA substrate; read-out: IMP-1 IC50
[1] = test system: Escherichia coli expressing NDM-1 (CLB30016); assay: Antibiotic potentiation activity: synergistic concentration (MITC95) with imipenem, OD600 growth; assay type: cell-based; conditions: concentration giving 95% inhibition of bacterial growth
Procedure: (§1) Antibiotic Potentiation Activity: Determination of Synergistic Concentration
(§2) The bacterial strains tested included the clinical strains Escherichia coli expressing NDM-1 (CLB30005, CLB30016), Serratia marcescens expressing IMP-1 (CL5741), and Klebsiella pneumoniae expressing VIM-1 (IHMA599644) Inhibitor activity was measured in the presence and absence of imipenem in a 384-well microplate.
(§3) The clinical strains CLB30016, CL5741 and IHMA599644 were grown on trypticase soy agar containing 5% sheep's blood. The clinical strain CLB30005 was grown on Mueller Hinton broth agar containing 8 ug/ml imipenem. The bacteria on agar plates were incubated at 35° C. with humidity overnight. The following day, individual colonies from each clinical strain were picked and resuspended in 5 ml saline to attain an OD600 of 0.14, 0.11, 0.15 and 0.13, for CLB30005, CLB30016, CL5741 and IHMA599644, respectively. These were further diluted 1:100 into 1.1×CAMHB and used to inoculate the test wells as described below.
(§4) Imipenem in 10 mM 3-(N-morpholino)propanesulfonic acid (MOPS, pH 7) was stored in single use aliquots at −80° C. […] On the day of the assay, 4 μl of antibiotic was added to 45 ul of bacteria followed by 1 μl of test compound and mixed by pipetting and with an orbital shaker. The concentration of antibiotic used in the assay was 4 μg/ml, or optionally 1 μg/ml. Microplates were covered and incubated at 35° C. for 22 hours to 24 hours. At the end of the incubation, absorbance was determined using a spectrophotometer.

[2] = test system: Klebsiella pneumoniae expressing VIM-1 (IHMA599644); assay: as above; assay type: cell-based; conditions: concentration giving 95% inhibition of bacterial growth
Procedure: as §1, §2, §3, §4

[3] = test system: Serratia marcescens expressing IMP-1 (CL5741); assay: as above; assay type: cell-based; conditions: concentration giving 95% inhibition of bacterial growth
Procedure: as §1, §2, §3, §4

[4] = fluorescence assay with CCF2-FA substrate, read-out: VIM-1 IC50
[5] = VIM-1 IC50, fluorescence assay with CCF2-FA substrate

Sequence of NDM-1 (C7C422 whole entry, looked up, species assumed): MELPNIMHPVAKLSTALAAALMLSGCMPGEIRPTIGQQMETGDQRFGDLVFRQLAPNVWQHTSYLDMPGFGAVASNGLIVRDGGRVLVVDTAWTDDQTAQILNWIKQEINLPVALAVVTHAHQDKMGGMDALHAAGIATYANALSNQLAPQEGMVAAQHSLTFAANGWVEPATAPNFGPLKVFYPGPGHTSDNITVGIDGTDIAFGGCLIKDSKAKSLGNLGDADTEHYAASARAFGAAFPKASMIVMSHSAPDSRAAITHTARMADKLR
Sequence of IMP-1 (P52699 whole entry, looked up): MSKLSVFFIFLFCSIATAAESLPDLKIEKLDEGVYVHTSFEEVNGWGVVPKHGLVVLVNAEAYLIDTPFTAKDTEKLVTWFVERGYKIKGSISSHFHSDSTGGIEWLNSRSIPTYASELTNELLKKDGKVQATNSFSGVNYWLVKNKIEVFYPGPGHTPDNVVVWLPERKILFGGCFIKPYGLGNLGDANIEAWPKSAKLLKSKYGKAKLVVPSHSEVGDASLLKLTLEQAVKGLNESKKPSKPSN

Row | Structure (SMILES) | IC50 (NDM-1) [nM] | IC50 (VIM-1; [4]) [nM] | IC50 (IMP-1) [nM] | Escherichia coli expressing NDM-1 (CLB 30016) MITC95 [1] [µM] | Klebsiella pneumoniae expressing VIM-1 (IHMA 599644) MITC95 [2] [µM] | Serratia marcescens expressing IMP-1 (CL5741) MITC95 [3] [µM] | IC50 (VIM-1; [5]) [nM]
1 | N=C(N)N1CCC(c2ccc(-c3cccc(S(N)(=O)=O)c3-c3nn[nH]n3)cc2)CC1 [Example 32, 4-(3′-Sulfamoyl-2′-(2H-tetrazol-5-yl)-[1,1′-biphenyl]-4-yl)piperidine-1-carboximidamide] | 3.46 | 77.8 | 18 | 0.5859 | 25 | 0.7813 | –
2 | C[N+]1(C)CCC(c2ccc(-c3cccc(S(N)(=O)=O)c3-c3nnn[nH]3)cc2)CC1.O=C([O-])C(F)(F)F [Example 33, 1,1-dimethyl-4-(3′-sulfamoyl-2′-(1H-tetrazol-5-yl)-[1,1′-biphenyl]-4-yl)piperidin-1-ium 2,2,2-trifluoroacetate] | 16.6 | 832 | 70.6 | 1.172 | 100 | 1.172 | –
3 | Cc1nnc2ccc(-c3cccc(S(N)(=O)=O)c3-c3nnn[nH]3)cn12 [Example 113, 3-(3-methyl-[1,2,4]triazolo[4,3-a]pyridin-6-yl)-2-(1H-tetrazol-5-yl)benzenesulfonamide] | 15.4 | 313 | 14800 | 3.125 | 50 | 200 | –
4 | Cc1cc2nccn2cc1-c1cccc(S(N)(=O)=O)c1-c1nnn[nH]1 [Example 115, 3-(7-methylimidazo[1,2-a]pyridin-6-yl)-2-(1H-tetrazol-5-yl)benzenesulfonamide] | 7.81 | – | 544 | 0.25 | 37.5 | 18.75 | 54.4
5 | NS(=O)(=O)c1cccc(-c2ccc(-n3cccn3)nc2)c1-c1nnn[nH]1 [Example 117, 3-(6-(1H-pyrazol-1-yl)pyridin-3-yl)-2-(1H-tetrazol-5-yl)benzenesulfonamide] | 5.18 | 135 | 134 | 1.172 | 100 | 6.25 | –
6 | NS(=O)(=O)c1cccc(-c2cccc(S(N)(=O)=O)c2-c2nnn[nH]2)c1 [Example 118, 2-(1H-tetrazol-5-yl)-[1,1′-biphenyl]-3,3′-disulfonamide] | 44.2 | 492 | 1330 | 0.7813 | 50 | 18.75 | –
7 | NS(=O)(=O)c1cccc(-c2cccc(CO)c2)c1-c1nnn[nH]1 [Example 119, 3′-(hydroxymethyl)-2-(1H-tetrazol-5-yl)-[1,1′-biphenyl]-3-sulfonamide] | 16.2 | – | 548 | 1.563 | 50 | 18.75 | 261
8 | NS(=O)(=O)c1cccc(-c2cccc3c2CNC3=O)c1-c1nnn[nH]1 [Example 120, 3-(1-oxoisoindolin-4-yl)-2-(1H-tetrazol-5-yl)benzenesulfonamide] | 1.42 | – | 777 | 0.7813 | 4.688 | 18.75 | 4.99
9 | NS(=O)(=O)c1cccc(-c2cccc3c2NCCC3)c1-c1nnn[nH]1 [Example 121, 3-(1,2,3,4-tetrahydroquinolin-8-yl)-2-(1H-tetrazol-5-yl)benzenesulfonamide] | 7.37 | 187 | 373 | 3.125 | >200 | 25 | –
10 | NS(=O)(=O)c1cccc(-c2cnc(N3CCCCC3)nc2)c1-c1nnn[nH]1 [Example 122, 3-(2-(piperidin-1-yl)pyrimidin-5-yl)-2-(1H-tetrazol-5-yl)benzenesulfonamide] | 3.08 | 249 | 63.1 | 4.688 | >200 | 4.688 | –
11 | NS(=O)(=O)c1cccc(-c2cnc(NC3CC3)nc2)c1-c1nnn[nH]1 [Example 123, 3-(2-(cyclopropylamino)pyrimidin-5-yl)-2-(1H-tetrazol-5-yl)benzenesulfonamide] | 8.3 | 309 | 415 | 1.563 | >200 | 18.75 | –
12 | NS(=O)(=O)c1cccc(-c2cnc(NC3CCCC3)nc2)c1-c1nnn[nH]1 [Example 124, 3-(2-(cyclopentylamino)pyrimidin-5-yl)-2-(1H-tetrazol-5-yl)benzenesulfonamide] | 4.34 | 259 | 68.9 | 2.344 | >200 | 6.25 | –
13 | NS(=O)(=O)c1cccc(-c2cnc(NCCO)nc2)c1-c1nnn[nH]1 [Example 125, 3-(2-((2-hydroxyethyl)amino)pyrimidin-5-yl)-2-(1H-tetrazol-5-yl)benzenesulfonamide] | 6.55 | – | 326 | 1.953 | 25 | 9.375 | 172
14 | NS(=O)(=O)c1cccc(-c2cnn(CCN3CCOCC3)c2)c1-c1nnn[nH]1 [Example 126, 3-(1-(2-morpholinoethyl)-1H-pyrazol-4-yl)-2-(1H-tetrazol-5-yl)benzenesulfonamide] | 166 | 14400 | 864 | 6.25 | >200 | 25 | –
15 | Cn1cc2cc(-c3cccc(S(N)(=O)=O)c3-c3nnn[nH]3)ccc2n1 [Example 127, 3-(2-methyl-2H-indazol-5-yl)-2-(1H-tetrazol-5-yl)benzenesulfonamide] | 1.11 | 84.2 | 157 | 1.172 | 37.5 | 4.688 | –
16 | CN1CCN(c2ncc(-c3cccc(S(N)(=O)=O)c3-c3nnn[nH]3)cn2)CC1 [Example 128, 3-(2-(4-methylpiperazin-1-yl)pyrimidin-5-yl)-2-(1H-tetrazol-5-yl)benzenesulfonamide] | 7.95 | 1140 | 453 | 1.563 | >200 | 9.375 | –
